Experimental data as given in publication PMC4476725 (PLoS Pathogens, 2015).
Read-outs that look alike come from different tables or passages of the source.

How the values were obtained:
[1] = target: T1, wild-type RSV L-P RNA polymerase complex (Human respiratory syncytial virus A, UniProt P28887); type: biochemical; details: for Km: primer extension from the +3 position, read-out: Km, single nucleotide incorporation, WT RSV L-P; for discrimination relative to natural CTP, WT RSV polymerase: Km CTP analog / Km CTP
T1 construct: made in house; host or cells: insect cells
T1 sequence (P28887 whole entry): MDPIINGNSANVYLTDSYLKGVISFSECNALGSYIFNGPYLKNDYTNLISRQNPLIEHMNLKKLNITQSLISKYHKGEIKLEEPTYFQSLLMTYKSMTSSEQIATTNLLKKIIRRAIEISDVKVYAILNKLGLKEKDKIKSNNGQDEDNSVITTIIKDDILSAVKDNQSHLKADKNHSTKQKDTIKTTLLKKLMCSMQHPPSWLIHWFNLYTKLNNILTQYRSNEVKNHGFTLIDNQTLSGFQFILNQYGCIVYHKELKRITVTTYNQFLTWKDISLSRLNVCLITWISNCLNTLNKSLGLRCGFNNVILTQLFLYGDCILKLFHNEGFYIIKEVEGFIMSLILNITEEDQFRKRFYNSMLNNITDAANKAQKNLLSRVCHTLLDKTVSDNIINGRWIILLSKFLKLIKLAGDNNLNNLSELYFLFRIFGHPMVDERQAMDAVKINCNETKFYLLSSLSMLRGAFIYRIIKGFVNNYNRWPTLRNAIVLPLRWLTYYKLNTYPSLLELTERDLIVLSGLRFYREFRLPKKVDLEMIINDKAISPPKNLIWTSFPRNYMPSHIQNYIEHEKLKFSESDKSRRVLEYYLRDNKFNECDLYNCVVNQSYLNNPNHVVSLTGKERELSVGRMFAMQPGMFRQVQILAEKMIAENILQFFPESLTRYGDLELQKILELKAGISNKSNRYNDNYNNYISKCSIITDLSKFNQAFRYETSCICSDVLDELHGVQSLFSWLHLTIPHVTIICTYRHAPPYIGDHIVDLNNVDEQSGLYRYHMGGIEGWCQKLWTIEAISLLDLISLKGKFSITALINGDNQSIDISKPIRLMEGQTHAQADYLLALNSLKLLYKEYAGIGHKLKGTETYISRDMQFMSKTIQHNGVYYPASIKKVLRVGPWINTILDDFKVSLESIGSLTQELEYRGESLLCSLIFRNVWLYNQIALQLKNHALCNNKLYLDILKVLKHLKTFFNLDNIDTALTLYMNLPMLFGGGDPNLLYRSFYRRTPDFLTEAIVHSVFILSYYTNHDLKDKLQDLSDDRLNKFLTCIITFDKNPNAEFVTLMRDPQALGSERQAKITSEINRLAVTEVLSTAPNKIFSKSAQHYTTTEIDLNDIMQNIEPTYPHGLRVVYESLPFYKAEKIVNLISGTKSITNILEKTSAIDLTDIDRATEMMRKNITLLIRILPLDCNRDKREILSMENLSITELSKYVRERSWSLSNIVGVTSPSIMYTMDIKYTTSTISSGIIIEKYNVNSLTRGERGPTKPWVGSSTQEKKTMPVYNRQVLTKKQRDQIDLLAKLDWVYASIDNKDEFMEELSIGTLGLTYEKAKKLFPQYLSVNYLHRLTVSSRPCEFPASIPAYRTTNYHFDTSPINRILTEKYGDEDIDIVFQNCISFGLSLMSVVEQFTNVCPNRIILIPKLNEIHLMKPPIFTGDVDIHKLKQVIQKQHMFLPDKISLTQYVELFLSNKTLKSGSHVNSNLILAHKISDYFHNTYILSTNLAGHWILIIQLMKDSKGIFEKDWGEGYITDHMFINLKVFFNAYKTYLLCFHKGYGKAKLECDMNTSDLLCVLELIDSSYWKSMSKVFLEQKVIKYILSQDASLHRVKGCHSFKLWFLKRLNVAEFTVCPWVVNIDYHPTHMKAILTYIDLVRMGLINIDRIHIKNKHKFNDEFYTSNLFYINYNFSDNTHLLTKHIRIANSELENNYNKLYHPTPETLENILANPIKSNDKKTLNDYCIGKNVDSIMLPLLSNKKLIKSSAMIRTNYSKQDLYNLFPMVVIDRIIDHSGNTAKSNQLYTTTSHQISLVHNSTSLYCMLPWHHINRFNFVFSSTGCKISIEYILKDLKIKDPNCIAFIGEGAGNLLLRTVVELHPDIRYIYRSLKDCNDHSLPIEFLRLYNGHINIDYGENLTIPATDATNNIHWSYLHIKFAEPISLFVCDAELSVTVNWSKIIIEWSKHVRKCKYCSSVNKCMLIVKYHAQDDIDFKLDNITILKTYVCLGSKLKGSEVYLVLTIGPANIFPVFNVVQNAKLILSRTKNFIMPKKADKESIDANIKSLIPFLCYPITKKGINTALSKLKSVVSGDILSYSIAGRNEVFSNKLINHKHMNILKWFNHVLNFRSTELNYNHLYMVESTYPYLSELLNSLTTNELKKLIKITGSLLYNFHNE
T1 sequence (P03421 whole entry, further chain): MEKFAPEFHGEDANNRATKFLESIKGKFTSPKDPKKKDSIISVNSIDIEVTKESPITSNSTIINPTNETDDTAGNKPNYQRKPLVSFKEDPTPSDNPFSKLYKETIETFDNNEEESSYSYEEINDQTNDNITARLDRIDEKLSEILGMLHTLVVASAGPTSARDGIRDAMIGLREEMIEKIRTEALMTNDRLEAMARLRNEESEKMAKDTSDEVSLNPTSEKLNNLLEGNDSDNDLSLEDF

[2] = target: RSV RNP complex (Human respiratory syncytial virus A, UniProt P28887); assay: biochemical; type: biochemical; details: for inhibition of RSV RNP complex (in words): Fig 5B; for IC50: read-out: RSV polymerase inhibition class (IC50, RSV RNP complex)
RSV RNP complex, sequence (P03421 whole entry): as the sequence (P03421 whole entry, further chain) above
RSV RNP complex, sequence (P28887 whole entry): as the sequence (P28887 whole entry) above

[3] = target: HCV polymerase (Hepatitis C virus genotype 1b, UniProt Q9WMX2); assay: HCV polymerase inhibition assay; type: biochemical; details: for IC50: read-out: HCV polymerase inhibition class (IC50)
[4] = target: human mitochondrial RNA polymerase (Homo sapiens, UniProt O00411); assay: DdRp assay with human mitochondrial RNA polymerase, single turnover; type: biochemical
[5] = system: RSV A2; assay: African Green monkey efficacy model; type: in vivo, African Green monkeys (Chlorocebus sabaeus); details: oral BID, 200 mg/kg loading then 50 mg/kg, 6 days
[6] = design: method as in PMID 25667954; details: cited from earlier work
[7] = system: RSV replicon; assay: RSV subgenomic replicon assay (luciferase); type: cell-based, Respiratory syncytial virus
Experimental: The RSV subgenomic replicon (Apath, Brooklyn, NY, USA) was used as previously described. The HeLa-derived cells containing the stable RSV replicon were cultured in DMEM containing 4500 mg/L D-glucose, L-glutamine, and 110 mg/L sodium pyruvate. The medium was further supplemented with 10% (v/v) FBS (Mediatech), 1% (v/v) penicillin/streptomycin (Mediatech), and 10 μg/mL of Blasticidin (BSD) (Invivogen). Cells were maintained at 37°C in a humidified 5% CO2 atmosphere. On the first day, 5000 RSV replicon cells per well were plated in a 96-well plate. On the following day, compounds to be tested were solubilized in 100% DMSO to 100 × the desired final testing concentration. Cells were incubated with compounds for 7 days at 37°C in a 5% CO2 atmosphere before measurement of the luciferase readout. Cell viability (CC50) was measured with a CellTiter-Glo cell proliferation assay (Promega).

[8] = target: QUAD-mutant RSV polymerase (Human respiratory syncytial virus A, UniProt P28887, A789V/I796V/L795I/M628L); type: cell-based
[9] = in vitro; details: human
[10] = system: Parainfluenza virus type-3; assay: PIV-3 antiviral assay in A549 cells; type: cell-based, human PIV-3 C243 strain; details: 168 h, 7 days, qRT-PCR
[11] = system: Vesicular stomatitis virus; assay: microbe, parasite or virus in culture; type: cell-based; details: A549, 48 h
[12] = system: influenza strain A/WSN/33 (H1N1); assay: Influenza assay in A549 cells (neuraminidase readout); type: cell-based; details: Influenza virus, 20h
[13] = in vitro; details: human; remark: listed apart in the source
[14] = system: A549
[15] = system: RSV A and B clinical isolates; assay: microbe, parasite or virus in culture; type: cell-based; details: human respiratory syncytial virus
[16] = system: HCV replicon; assay: microbe, parasite or virus in culture; type: cell-based; details: Hepatitis C virus
[17] = system: RSV B1; assay: RSV inhibition by qRT-PCR in HEp-2 cells, RSV B1 strain; type: cell-based; details: human respiratory syncytial virus, 120 h, 5 days, n = 3, read-out: EC50, inhibition of RNA replication of RSV B1
[18] = system: Rhinovirus 1b; assay: Human rhinovirus assay in HeLa-OHIO cells (CPE); type: cell-based; details: Enterovirus
[19] = in vitro; details: human; remark: listed apart in the source
[20] = in vitro; details: human; remark: listed apart in the source
[21] = system: RSV A2; assay: Three-dimensional lung model, primary human tracheal/bronchial epithelial cells infected with RSV A2; type: cell-based; details: human respiratory syncytial virus, Epithelial cell
[22] = system: RSV A2; assay: RSV inhibition by qRT-PCR in HEp-2 cells, RSV A2 strain; type: cell-based; details: human respiratory syncytial virus
[23] = target: RSV polymerase QUAD mutant (Human respiratory syncytial virus A, UniProt P28887, A789V/I796V/L795I/M628L); assay: Single nucleotide incorporation by recombinant RSV L-P polymerase, QUAD mutant; type: biochemical; details: for Km: primer extension from the +3 position, n = 2
[24] = HEp-2, Isolate A1997-12-35, RSV A
[25] = HEp-2, Isolate A1998-03-02, RSV A
[26] = HEp-2, Isolate A1998-12-21, RSV A
[27] = HEp-2, Isolate A2000-03-04, RSV A
[28] = HEp-2, Isolate A2001-02-20, RSV A
[29] = HEp-2, Isolate A2001-03-12, RSV A

[N-]=[N+]=N[C@]1(COP(=O)(O)OP(=O)(O)OP(=O)(O)O)O[C@@H](n2ccc(N)nc2=O)[C@H](O)[C@@H]1O [4'N3-CTP, reference compound]
substrate and chain termination profile with recombinant RSV polymerase (in words) [1]: both substrates and chain terminators
inhibition of RSV RNP complex (in words) [2]: dual RSV/HCV polymerase inhibitors
IC50 ([2]; first symbol of RSV / HCV): 100 to 10000 nM
inhibition of HCV polymerase (in words) ([3]; Fig 5B): dual RSV/HCV polymerase inhibitors
IC50 ([3]; second symbol of RSV / HCV): < 100 nM
recognition as substrate by human mitochondrial RNA polymerase (in words) ([4]; 100 μM of each NTP): efficiently incorporated

CC(C)C(=O)OC[C@@]1(CCl)O[C@@H](n2ccc(N)nc2=O)[C@H](F)[C@@H]1OC(=O)C(C)C [ALS-8176, 4'-chloromethyl-2'-deoxy-3',5'-di-O-isobutyryl-2'-fluorocytidine]
difference in RSV RNA titers, vehicle vs treated, BAL ([5]; end of treatment): > 4 log10 copies/mL
difference in RSV RNA titers, vehicle vs treated, nasopharyngeal (NP) swab ([5]; end of treatment): about 3 log10 copies/mL
RSV RNA titer in bronchoalveolar lavage (BAL) samples ([5]; end of treatment (Day 5 post-infection), all four animals, LOD 50 copies/mL): < 50 copies/mL
oral bioavailability [6]: high

Nc1ccn([C@@H]2O[C@](CCl)(CI)[C@@H](O)[C@H]2F)c(=O)n1 [ALS-8112-I, 4’-Chloromethyl-2’,5’-dideoxy-2’-fluoro-5’-iodocytidine]
inhibition of luciferase activity in the RSV replicon (in words) [7]: did not significantly inhibit

Nc1ccn([C@@H]2O[C@@](CO)(CCl)[C@@H](O)[C@H]2F)c(=O)n1 [ALS-8112, 2'-fluoro-4'-chloromethyl (2'F-4'ClCH2) cytidine]
EC50 ([7]; human respiratory syncytial virus, RSV replicon): 150 nM
maximum inhibition, QUAD-mutant minigenome [8]: about 60%
CC50 [9]: > 100000 nM
EC50 [10]: 1300 nM
EC50 [11]: 3400 nM
EC50 [12]: > 100000 nM
CC50 [13]: > 100000 nM
CC50 ([14]; A549 cells, Influenza virus row): > 100000 nM
CC50 ([14]; human): > 100000 nM
EC50 ([15]; HEp-2, Isolate 1144, RSV B): 290 ± 20 nM
EC90 ([15]; HEp-2, Isolate 1144, RSV B): 1470 ± 220 nM
EC50 ([15]; HEp-2, Isolate 1262, RSV B): 110 ± 30 nM
EC90 ([15]; HEp-2, Isolate 1262, RSV B): 2180 ± 270 nM
EC50 ([15]; HEp-2, Isolate 9320, RSV B): 90 ± 30 nM
EC90 ([15]; HEp-2, Isolate 9320, RSV B): 960 ± 160 nM
EC50 ([15]; HEp-2, Isolate 18537, RSV B): 210 ± 60 nM
EC90 ([15]; HEp-2, Isolate 18537, RSV B): 990 ± 220 nM
EC50 [15, 24]: 180 ± 40 nM
EC90 [15, 24]: 2460 ± 150 nM
EC50 [15, 25]: 260 ± 60 nM
EC90 [15, 25]: 2150 ± 270 nM
EC50 [15, 26]: 90 ± 20 nM
EC90 [15, 26]: 1110 ± 540 nM
EC50 [15, 27]: 180 ± 20 nM
EC90 [15, 27]: 2180 ± 240 nM
EC50 [15, 28]: 100 ± 10 nM
EC90 [15, 28]: 1100 ± 530 nM
EC50 [15, 29]: 450 ± 70 nM
EC90 [15, 29]: 2330 ± 350 nM
EC50 ([15]; HEp-2, Isolate Pep 121, RSV B): 320 ± 70 nM
EC90 ([15]; HEp-2, Isolate Pep 121, RSV B): 2070 ± 430 nM
EC50 ([16]; Huh-7, HCV replicon, read-out: HCV EC50): > 100000 nM
EC50 ([16]; Huh-7 replicon, read-out: EC50): > 100000 nM
EC50 [17]: 132 ± 55 nM
EC50 [18]: > 100000 nM
CC50 [19]: > 100000 nM
CC50 [20]: > 100000 nM
EC50 ([21]; Disease: Asthma, read-out: EC50): 730 nM
EC90 ([21]; Disease: Asthma, read-out: EC90): 2700 nM
EC50 ([21]; donor one, Disease: None, read-out: EC50): 370 nM
EC90 ([21]; donor one, Disease: None, read-out: EC90): 2700 nM
EC50 ([21]; donor two, Disease: None, read-out: EC50): 90 nM
EC90 ([21]; donor two, Disease: None, read-out: EC90): 1300 nM
EC50 ([21]; range over human donor cells (n = 3), read-out: EC50, RSV RNA replication in donor cells): 90 to 730 nM
EC90 ([21]; range over human donor cells (n = 3), read-out: EC90, RSV RNA replication in donor cells): 1300 to 2700 nM
EC50 ([22]; 120 h, HEp-2 cells, 5 days, qRT-PCR, n = 3, read-out: EC50, inhibition of RNA replication of RSV A2): 153 ± 76 nM
EC50 ([22]; HEp-2, read-out: EC50): 150 nM

[N-]=[N+]=N[C@]1(COP(=O)(O)OP(=O)(O)OP(=O)(O)O)O[C@@H](n2ccc(N)nc2=O)[C@H](F)[C@@H]1O [2'F-4'N3-CTP]
substrate and chain termination profile with recombinant RSV polymerase (in words) ([1]; Fig 5A): both substrates and chain terminators
inhibition of RSV RNP complex (in words) [2]: dual RSV/HCV polymerase inhibitors
IC50 ([2]; first symbol of RSV / HCV): 100 to 10000 nM
inhibition of HCV polymerase (in words) ([3]; Fig 5B): dual RSV/HCV polymerase inhibitors
IC50 ([3]; second symbol of RSV / HCV): 100 to 10000 nM

Nc1ccn([C@@H]2O[C@](CCl)(COP(=O)(O)OP(=O)(O)OP(=O)(O)O)[C@@H](O)C2(F)F)c(=O)n1 [2'diF-4'ClCH2-CTP]
substrate and chain termination profile with recombinant RSV polymerase (in words) [1]: almost completely inactive
IC50 ([2]; first symbol of RSV / HCV): > 10000 nM
IC50 ([3]; second symbol of RSV / HCV): > 10000 nM

cytidine triphosphate [CTP, reference compound]
Km [1]: 0.057 ± 0.009 µM
IC50 [2]: > 10000 nM
IC50 [3]: > 10000 nM
Km [23]: 0.056 ± 0.01 µM

Nc1ccn([C@@H]2O[C@H](COP(=O)(O)OP(=O)(O)OP(=O)(O)O)[C@@H](O)[C@H]2F)c(=O)n1 [2'F-CTP]
inhibition of HCV polymerase (in words) [3]: did not efficiently inhibit
recognition as substrate by human mitochondrial RNA polymerase (in words) [4]: recognized as a substrate

Nc1ccn([C@@H]2O[C@H](COP(=O)(O)OP(=O)(O)OP(=O)(O)O)[C@@H](O)C2(F)F)c(=O)n1 [2'diF-CTP, reference compound]
substrate and chain termination profile with recombinant RSV polymerase (in words) [1]: substrates for RSV polymerase, but did not cause immediate chain termination
inhibition of RSV RNP complex (in words) [2]: did not efficiently inhibit
IC50 ([2]; first symbol of RSV / HCV): > 10000 nM
inhibition of HCV polymerase (in words) ([3]; Fig 5B): did not efficiently inhibit
IC50 ([3]; second symbol of RSV / HCV): 100 to 10000 nM

4'ClCH2-CTP
substrate and chain termination profile with recombinant RSV polymerase (in words) ([1]; Fig 5A): less efficiently recognized
discrimination relative to natural CTP, WT RSV polymerase [1]: 288±48 fold
Km [1]: 16 ± 2.7 µM
inhibition of RSV RNP complex (in words) [2]: dual RSV/HCV polymerase inhibitors
IC50 ([2]; first symbol of RSV / HCV): 100 to 10000 nM
inhibition of HCV polymerase (in words) ([3]; Fig 5B): dual RSV/HCV polymerase inhibitors
IC50 ([3]; second symbol of RSV / HCV): 100 to 10000 nM
Km [23]: 198 ± 18 µM
increase in discrimination, QUAD vs WT (resistance level) ([23]; recombinant L-P enzymes): 24 fold

[N-]=[N+]=NC1(COP(=O)(O)OP(=O)(O)OP(=O)(O)O)OC(n2ccc(N)nc2=O)C(F)(F)C1O (stereo not drawn) [2'diF-4'N3-CTP]
substrate and chain termination profile with recombinant RSV polymerase (in words) [1]: both substrates and chain terminators
inhibition of RSV RNP complex (in words) [2]: dual RSV/HCV polymerase inhibitors
IC50 ([2]; first symbol of RSV / HCV): 100 to 10000 nM
inhibition of HCV polymerase (in words) ([3]; Fig 5B): dual RSV/HCV polymerase inhibitors
IC50 ([3]; second symbol of RSV / HCV): 100 to 10000 nM

C[C@@]1(F)[C@H](O)[C@@H](COP(=O)(O)OP(=O)(O)OP(=O)(O)O)O[C@H]1n1ccc(N)nc1=O [mericitabine-TP, 2'F-2'Me-CTP, reference compound]
substrate and chain termination profile with recombinant RSV polymerase (in words) ([1]; Fig 5A): almost completely inactive
discrimination relative to natural CTP, WT RSV polymerase [1]: greater than 5,000 fold
level of incorporation by RSV polymerase ([1]; at a concentration of 300 μM): less than 20%
IC50 ([2]; first symbol of RSV / HCV): > 10000 nM
IC50 ([3]; second symbol of RSV / HCV): < 100 nM
